Experimental data from patent publication US20210045385A1, “PYRIDAZINONE-SUBSTITUTED KETOXIMES AS HERBICIDES” (FMC Corporation, priority 2018, published 2021).

Tests used:
Assay type in all cases: in vivo
[1] = test system: Italian ryegrass (Lolium multiflorum); test: Test A preemergence, visual plant response rating; conditions: approx. 10 days
Method in brief: (§1)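 Ratings 0–100 (100 = complete control), visual, vs untreated controls at ~10 days. Application pre- or postemergence; solvent mixture with surfactant; loam/sand medium.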

[2] = test system: kochia (Kochia scoparia); test: Test A preemergence, visual plant response rating; conditions: approx. 10 days
Method in brief: as §1

[3] = test system: ragweed (common ragweed, Ambrosia elatior); test: Test A preemergence, visual plant response rating; conditions: approx. 10 days
Method in brief: as §1

[4] = test system: foxtail, green (green foxtail, Setaria viridis); test: Test A preemergence, visual plant response rating; conditions: approx. 10 days
Method in brief: as §1

[5] = test system: barnyardgrass (Echinochloa crus-galli); test: Test A preemergence, visual plant response rating; conditions: approx. 10 days
Method in brief: as §1

[6] = test system: pigweed (Amaranthus retroflexus); test: Test A preemergence, visual plant response rating; conditions: approx. 10 days
Method in brief: as §1

[7] = test system: ducksalad (Heteranhera limosa); test: Test B flooded paddy test, visual plant response rating; conditions: 250 g ai/ha, Flood, applied to paddy water, 2-leaf stage, evaluated after 13 to 15 days
Method in brief: (§2)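 Plants were raised to the 2-leaf stage, then pots were flooded to 3 cm above the soil and test compound was applied directly into the paddy water. Water depth was held for the whole test; after 13 to 15 days in a greenhouse, responses were scored visually against controls.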

[8] = test system: barnyardgrass (Echinochloa crus-galli); test: as above; conditions: 250 g ai/ha, Flood, applied to paddy water, 2-leaf stage, evaluated after 13 to 15 days
Method in brief: as §2

[9] = test system: rice (Oryza sativa); test: as above; conditions: 250 g ai/ha, Flood, applied to paddy water, 2-leaf stage, evaluated after 13 to 15 days
Method in brief: as §2

[10] = test system: sedge, umbrella (small-flower umbrella sedge, Cyperus difformis); test: as above; conditions: 250 g ai/ha, Flood, applied to paddy water, 2-leaf stage, evaluated after 13 to 15 days
Method in brief: as §2

[11] = test system: wheat (Triticum aestivum); test: Test A postemergence, visual plant response rating; conditions: for Wheat plant response rating (0 to 100 scale): 500 g ai/ha, postemergence, 0 is no effect, 100 is complete control; for Wheat plant response rating: Postemergence, 125 g ai/ha, 0 to 100 scale (0 no effect, 100 complete control)
Method in brief: as §1

[12] = test system: Italian ryegrass (Lolium multiflorum); test: Test A postemergence, visual plant response rating; conditions: for Ryegrass, Italian plant response rating (0 to 100 scale): 500 g ai/ha, postemergence, 0 is no effect, 100 is complete control; for Ryegrass, Italian plant response rating: Postemergence, 125 g ai/ha, 0 to 100 scale (0 no effect, 100 complete control)
Method in brief: as §1

[13] = test system: kochia (Kochia scoparia); test: Test A postemergence, visual plant response rating; conditions: for Kochia plant response rating (0 to 100 scale): 500 g ai/ha, postemergence, 0 is no effect, 100 is complete control; for Kochia plant response rating: Postemergence, 125 g ai/ha, 0 to 100 scale (0 no effect, 100 complete control)
Method in brief: as §1

[14] = test system: ragweed (common ragweed, Ambrosia elatior); test: Test A postemergence, visual plant response rating; conditions: for Ragweed plant response rating (0 to 100 scale): 500 g ai/ha, postemergence, 0 is no effect, 100 is complete control; for Ragweed plant response rating: Postemergence, 125 g ai/ha, 0 to 100 scale (0 no effect, 100 complete control)
Method in brief: as §1

[15] = test system: corn (Zea mays); test: Test A postemergence, visual plant response rating; conditions: for Corn plant response rating (0 to 100 scale): 500 g ai/ha, postemergence, 0 is no effect, 100 is complete control; for Corn plant response rating: Postemergence, 125 g ai/ha, 0 to 100 scale (0 no effect, 100 complete control)
Method in brief: as §1

[16] = test system: foxtail, green (green foxtail, Setaria viridis); test: Test A postemergence, visual plant response rating; conditions: for Foxtail, Green plant response rating (0 to 100 scale): 500 g ai/ha, postemergence, 0 is no effect, 100 is complete control; for Foxtail, Green plant response rating: Postemergence, 125 g ai/ha, 0 to 100 scale (0 no effect, 100 complete control)
Method in brief: as §1

[17] = test system: barnyardgrass (Echinochloa crus-galli); test: Test A postemergence, visual plant response rating; conditions: for Barnyardgrass plant response rating (0 to 100 scale): 500 g ai/ha, postemergence, 0 is no effect, 100 is complete control; for Barnyardgrass plant response rating: Postemergence, 125 g ai/ha, 0 to 100 scale (0 no effect, 100 complete control)
Method in brief: as §1

[18] = test system: blackgrass (Alopecurus myosuroides); test: Test A postemergence, visual plant response rating; conditions: for Blackgrass plant response rating (0 to 100 scale): 500 g ai/ha, postemergence, 0 is no effect, 100 is complete control; for Blackgrass plant response rating: Postemergence, 125 g ai/ha, 0 to 100 scale (0 no effect, 100 complete control)
Method in brief: as §1

[19] = test system: pigweed (Amaranthus retroflexus); test: Test A postemergence, visual plant response rating; conditions: for Pigweed plant response rating (0 to 100 scale): 500 g ai/ha, postemergence, 0 is no effect, 100 is complete control; for Pigweed plant response rating: Postemergence, 125 g ai/ha, 0 to 100 scale (0 no effect, 100 complete control)
Method in brief: as §1

[20] = test system: galium (catchweed bedstraw, Galium aparine); test: Test A postemergence, visual plant response rating; conditions: for Galium plant response rating (0 to 100 scale): 500 g ai/ha, postemergence, 0 is no effect, 100 is complete control; for Galium plant response rating: Postemergence, 125 g ai/ha, 0 to 100 scale (0 no effect, 100 complete control)
Method in brief: as §1

Row | Compound | Ryegrass, Italian plant response rating (0 to 100 scale) ([1]; 125 g ai/ha Preemergence) | Ryegrass, Italian plant response rating (0 to 100 scale) ([1]; 500 g ai/ha Preemergence) | Kochia plant response rating (0 to 100 scale) ([2]; 125 g ai/ha Preemergence) | Kochia plant response rating (0 to 100 scale) ([2]; 500 g ai/ha Preemergence) | Ragweed plant response rating (0 to 100 scale) ([3]; 125 g ai/ha Preemergence) | Ragweed plant response rating (0 to 100 scale) ([3]; 500 g ai/ha Preemergence) | Foxtail, Green plant response rating (0 to 100 scale) ([4]; 125 g ai/ha Preemergence) | Foxtail, Green plant response rating (0 to 100 scale) ([4]; 500 g ai/ha Preemergence) | Barnyardgrass plant response rating (0 to 100 scale) ([5]; 125 g ai/ha Preemergence) | Barnyardgrass plant response rating (0 to 100 scale) ([5]; 500 g ai/ha Preemergence) | Pigweed plant response rating (0 to 100 scale) ([6]; 125 g ai/ha Preemergence) | Pigweed plant response rating (0 to 100 scale) ([6]; 500 g ai/ha Preemergence) | Plant response rating, Ducksalad (0 to 100 scale, 0 is no effect, 100 is complete control) [7] | Plant response rating, Barnyardgrass (0 to 100 scale, 0 is no effect, 100 is complete control) [8] | Plant response rating, Rice (0 to 100 scale, 0 is no effect, 100 is complete control) [9] | Plant response rating, Sedge, Umbrella (0 to 100 scale, 0 is no effect, 100 is complete control) [10] | Wheat plant response rating (0 to 100 scale) [11] | Wheat plant response rating [11] | Ryegrass, Italian plant response rating (0 to 100 scale) [12] | Ryegrass, Italian plant response rating [12] | also measured
1 | CCO/N=C(/c1ccccc1C)c1c(O)c(C)nn(C)c1=O [Compound 15] | 70 | 80 | 0 | 10 | 30 | 90 | 0 | 60 | 30 | 80 | 60 | 70 | 0 | 0 | 0 | 0 | 0 | 0 | 80 | 60 | Kochia plant response rating (0 to 100 scale) [13]: 20; Kochia plant response rating [13]: 0; Ragweed plant response rating (0 to 100 scale) [14]: 80; Ragweed plant response rating [14]: 60; Corn plant response rating (0 to 100 scale) [15]: 10; Corn plant response rating [15]: 0; Foxtail, Green plant response rating (0 to 100 scale) [16]: 30; Foxtail, Green plant response rating [16]: 10; Barnyardgrass plant response rating (0 to 100 scale) [17]: 30; Barnyardgrass plant response rating [17]: 10; Blackgrass plant response rating (0 to 100 scale) [18]: 60; Blackgrass plant response rating [18]: 30; Pigweed plant response rating (0 to 100 scale) [19]: 30; Pigweed plant response rating [19]: 20; Galium plant response rating (0 to 100 scale) [20]: 90; Galium plant response rating [20]: 80
2 | CCO/N=C(/c1ccc(C)cc1)c1c(O)c(C)nn(C)c1=O [Compound 16] | 0 | 50 | 0 | 0 | 0 | 20 | 0 | 0 | 0 | 0 | 0 | 0 | 0 | 0 | 0 | 0 | 0 | 0 | 0 | 0 | Kochia plant response rating (0 to 100 scale) [13]: 10; Kochia plant response rating [13]: 0; Ragweed plant response rating (0 to 100 scale) [14]: 30; Ragweed plant response rating [14]: 0; Corn plant response rating (0 to 100 scale) [15]: 0; Corn plant response rating [15]: 0; Foxtail, Green plant response rating (0 to 100 scale) [16]: 10; Foxtail, Green plant response rating [16]: 0; Barnyardgrass plant response rating (0 to 100 scale) [17]: 10; Barnyardgrass plant response rating [17]: 0; Blackgrass plant response rating (0 to 100 scale) [18]: 0; Blackgrass plant response rating [18]: 0; Pigweed plant response rating (0 to 100 scale) [19]: 0; Pigweed plant response rating [19]: 0; Galium plant response rating (0 to 100 scale) [20]: 0; Galium plant response rating [20]: 0
3 | Cc1ccccc1/C(=N/OC(C)C)c1c(O)c(C)nn(C)c1=O [Compound 19] | 0 | 50 | 0 | 0 | 50 | 80 | 0 | 40 | 50 | 60 | 0 | 80 | 0 | 0 | 0 | 0 | 0 | 0 | 30 | 20 | Kochia plant response rating (0 to 100 scale) [13]: 30; Kochia plant response rating [13]: 10; Ragweed plant response rating (0 to 100 scale) [14]: 80; Ragweed plant response rating [14]: 70; Corn plant response rating (0 to 100 scale) [15]: 0; Corn plant response rating [15]: 0; Foxtail, Green plant response rating (0 to 100 scale) [16]: 50; Foxtail, Green plant response rating [16]: 10; Barnyardgrass plant response rating (0 to 100 scale) [17]: 60; Barnyardgrass plant response rating [17]: 20; Blackgrass plant response rating (0 to 100 scale) [18]: 50; Blackgrass plant response rating [18]: 10; Pigweed plant response rating (0 to 100 scale) [19]: 80; Pigweed plant response rating [19]: 70; Galium plant response rating (0 to 100 scale) [20]: 90; Galium plant response rating [20]: 80
4 | Cc1ccccc1/C(=N\OC(C)C)c1c(O)c(C)nn(C)c1=O [Compound 20] | 30 | 70 | 0 | 0 | 30 | 90 | 0 | 60 | 20 | 70 | 80 | 100 | 0 | 0 | 0 | 0 | 0 | 0 | 50 | 20 | Kochia plant response rating (0 to 100 scale) [13]: 50; Kochia plant response rating [13]: 0; Ragweed plant response rating (0 to 100 scale) [14]: 80; Ragweed plant response rating [14]: 60; Corn plant response rating (0 to 100 scale) [15]: 0; Corn plant response rating [15]: 0; Foxtail, Green plant response rating (0 to 100 scale) [16]: 60; Foxtail, Green plant response rating [16]: 30; Barnyardgrass plant response rating (0 to 100 scale) [17]: 50; Barnyardgrass plant response rating [17]: 30; Blackgrass plant response rating (0 to 100 scale) [18]: 60; Blackgrass plant response rating [18]: 20; Pigweed plant response rating (0 to 100 scale) [19]: 70; Pigweed plant response rating [19]: 60; Galium plant response rating (0 to 100 scale) [20]: 90; Galium plant response rating [20]: 80
